Values of other authors in patent US20050169991A1, “Sustained release torsemide dosage forms” (Penwest Pharmaceuticals Co., priority 2003, published 2005).

Settings: in vivo

half-life: 6 h
Structure (SMILES): Cc1cccc(Nc2ccncc2S(=O)(=O)NC(=O)NC(C)C)c1 [Torsemide]
